Reference: patent US8143228B2, “Agents capable of downregulating an MSF-A dependent HIF-1α and use thereof in cancer treatment” (Medical Research Fund of Tel Aviv Sourasky Medical Center, priority 2004, dated 2012)
Where a SMILES comes first, the peptide text is derived from it. The star is where a group is joined. Cbz = O=C(OCc1ccccc1)*

Test system: HIF-1α and Ub-HIF-1α
Assay: Proteasome inhibition and HIF-1α ubiquitination, Western blot
Format: cell-based
Conditions: PC-3-Neo cells, 4 hours, 5 and 20 μM
Method: FIGS. 19a-b are Western blot analyses depicting the effect of proteasome inhibition on HIF-1α (FIG. 19a) or actin (FIG. 19b) expression levels in PC-3-MSF-A or PC-3-Neo cells. PC-3-Neo (lanes 1-3) and PC-3-MSF-A (lanes 4-6) cells were treated for 4 hours with either 0.1 DMSO (lanes 1 and 4) or with 5 (lanes 2 and 5) and 20 (lanes 3 and 6) μM MG-132. Whole cell lysates were prepared and equal amounts of protein from each cell lysate were resolved by SDS-PAGE, transferred and immunoblotted with antibodies against HIF-1α (FIG. 19a) and actin (FIG. 19b). Ub-HIF-1α points to ubiquitinated HIF-1α protein species.
FIGS. 20a-b are Western blot analyses of HIF-1α immunoprecipitates depicting the expression level of HIF-1α (FIG. 20a) and ubiquitin (FIG. 20b) in PC-3-Neo and PC-3-MSF-A cells. PC-3-Neo (lanes 1-2) and PC-3-MSF-A (lanes 3-4) cells were treated for 4 hours with either 0.1 DMSO (lanes 1 and 3) or with 10 μM MG-132 (lanes 2 and 4). Whole cell lysates were prepared and subjected to immunoprecipitation (IP) with HIF-1α antibody. Immunoprecipitates were resolved on SDS-PAGE and immunoblotted (IB) with HIF-1α (FIG. 20a) and ubiquitin (FIG. 20b) antibodies. Ub-HIF-1α points to ubiquitinated HIF-1α protein species.
To study the ubiquitination of the endogenous HIF-1α in cells over-expressing MSF-A protein, the proteasome inhibitor MG-132 was used. […]

Compound: CC(C)C[C@@H](C=O)NC(=O)[C@H](CC(C)C)NC(=O)[C@H](CC(C)C)NC(=O)OCc1ccccc1 [MG-132] (Cbz-Leu-Leu-Leu-aldehyde)
- expression of HIF-1α and Ub-HIF-1α: induced the expression of HIF-1α and Ub-HIF-1α
